Experimental data reported in patent publication US4868321A, “Isothiocyanate intermediates” (FMC Corporation, priority 1988, dated 1989).

How the values were obtained:
Format in all cases: in vivo
Johnsongrass [1] = experiment: Preemergence Herbicidal Activity, Johnsongrass; settings: Sorghum halepense, pre-emergence
Excerpt: (§1) The herbicidal data in the following Tables 3 and 4 was obtained in the manner described in PCT published application no. […] In those tables, the test compounds are identified by numbers which correspond to those in Table 1, "kg/ha" is kilograms per hectare, and "% C" is percent control.

Velvetleaf [2] = experiment: Postemergence Herbicidal Activity, Velvetleaf; settings: Abutilon theophrasti, post-emergence
Excerpt: (§2) The herbicidal data in the following Tables 3 and 4 was obtained in the manner described in PCT published application no. WO 85/01939, previously mentioned, usually employing solutions of the herbicidal compound in 50/50 acetone/water mixtures. In those tables, the test compounds are identified by numbers which correspond to those in Table 1, "kg/ha" is kilograms per hectare, and "% C" is percent control.

Field Bindweed [3] = experiment: Preemergence Herbicidal Activity, Field Bindweed; settings: pre-emergence
Excerpt: as §2

Rice [4] = experiment: Preemergence Herbicidal Activity, Rice; settings: Oryza sativa, pre-emergence
Excerpt: as §1

Barnyardgrass [5] = experiment: Postemergence Herbicidal Activity, Barnyardgrass; settings: Echinochloa crus-galli, post-emergence
Excerpt: as §1

Morningglory [6] = experiment: Preemergence Herbicidal Activity, Morningglory; settings: Ipomoea, pre-emergence
Excerpt: as §2

Soybean [7] = experiment: Preemergence Herbicidal Activity, Soybean; settings: Glycine max, pre-emergence
Excerpt: as §1

Wheat [8] = experiment: Postemergence Herbicidal Activity, Wheat; settings: Triticum aestivum, post-emergence
Excerpt: as §1

Cotton [9] = experiment: Postemergence Herbicidal Activity, Cotton; settings: Gossypium hirsutum, post-emergence
Excerpt: as §2

Field Corn [10] = experiment: Postemergence Herbicidal Activity, Field Corn; settings: Zea mays, post-emergence
Excerpt: as §1

Velvetleaf [11] = experiment: Preemergence Herbicidal Activity, Velvetleaf; settings: Abutilon theophrasti, pre-emergence
Excerpt: as §2

Wheat [12] = experiment: Preemergence Herbicidal Activity, Wheat; settings: Triticum aestivum, pre-emergence
Excerpt: as §1

Barnyardgrass [13] = experiment: Preemergence Herbicidal Activity, Barnyardgrass; settings: Echinochloa crus-galli, pre-emergence
Excerpt: as §1

Field Bindweed [14] = experiment: Postemergence Herbicidal Activity, Field Bindweed; settings: post-emergence
Excerpt: as §2

Green Foxtail [15] = experiment: Postemergence Herbicidal Activity, Green Foxtail; settings: Setaria viridis, post-emergence
Excerpt: as §1

Rice [16] = experiment: Postemergence Herbicidal Activity, Rice; settings: Oryza sativa, post-emergence
Excerpt: as §1

Johnsongrass [17] = experiment: Postemergence Herbicidal Activity, Johnsongrass; settings: Sorghum halepense, post-emergence
Excerpt: as §1

Morningglory [18] = experiment: Postemergence Herbicidal Activity, Morningglory; settings: Ipomoea, post-emergence
Excerpt: as §2

Cotton [19] = experiment: Preemergence Herbicidal Activity, Cotton; settings: Gossypium hirsutum, pre-emergence
Excerpt: as §2

Green Foxtail [20] = experiment: Preemergence Herbicidal Activity, Green Foxtail; settings: Setaria viridis, pre-emergence
Excerpt: as §1

Field Corn [21] = experiment: Preemergence Herbicidal Activity, Field Corn; settings: Zea mays, pre-emergence
Excerpt: as §1

Soybean [22] = experiment: Postemergence Herbicidal Activity, Soybean; settings: Glycine max, post-emergence
Excerpt: as §1

CCS(=O)(=O)Nc1cc(-n2nnn(CCCF)c2=O)c(Cl)cc1F [Compound 39, 1-[2-Chloro-4-fluoro-5-(N--ethylsulfonylamino)phenyl]-4,5-dihydro-4-(3-fluoropropyl)-5H--tetrazol-5-one]
pest or weed control at 1000 g/ha (Johnsongrass [1]; 1.0 kg/ha): 10%
pest or weed control at 1000 g/ha (Velvetleaf [2]; 1.0 kg/ha): 100%
pest or weed control at 1000 g/ha (Field Bindweed [3]; 1.0 kg/ha): 70%
plant injury at 1000 g/ha (Rice [4]; 1.0 kg/ha): 10%
pest or weed control at 1000 g/ha (Barnyardgrass [5]; 1.0 kg/ha): 50%
pest or weed control at 1000 g/ha (Morningglory [6]; 1.0 kg/ha): 100%
plant injury at 1000 g/ha (Soybean [7]; 1.0 kg/ha): 10%
plant injury at 1000 g/ha (Wheat [8]; 1.0 kg/ha): 30%
plant injury at 1000 g/ha (Cotton [9]; 1.0 kg/ha): 100%
plant injury at 1000 g/ha (Field Corn [10]; 1.0 kg/ha): 50%
pest or weed control at 1000 g/ha (Velvetleaf [11]; 1.0 kg/ha): 100%
plant injury at 1000 g/ha (Wheat [12]; 1.0 kg/ha): 20%
pest or weed control at 1000 g/ha (Barnyardgrass [13]; 1.0 kg/ha): 60%
pest or weed control at 1000 g/ha (Field Bindweed [14]; 1.0 kg/ha): 100%
pest or weed control at 1000 g/ha (Green Foxtail [15]; 1.0 kg/ha): 50%
plant injury at 1000 g/ha (Rice [16]; 1.0 kg/ha): 20%
pest or weed control at 1000 g/ha (Johnsongrass [17]; 1.0 kg/ha): 50%
pest or weed control at 1000 g/ha (Morningglory [18]; 1.0 kg/ha): 100%
plant injury at 1000 g/ha (Cotton [19]; 1.0 kg/ha): 50%
pest or weed control at 1000 g/ha (Green Foxtail [20]; 1.0 kg/ha): 50%
plant injury at 1000 g/ha (Field Corn [21]; 1.0 kg/ha): 70%
plant injury at 1000 g/ha (Soybean [22]; 1.0 kg/ha): 95%

O=c1n(CCCF)nnn1-c1cc(NS(=O)(=O)C(F)(F)F)c(Cl)cc1Cl [Compound 35, 1-[2,4-Dichloro-5-(N--trifluoromethylsulfonylamino)phenyl]-4,5-dihydro-4-(3-fluoropropyl)-5H--tetrazol-5-one]
pest or weed control at 4000 g/ha (Johnsongrass [1]; 4.0 kg/ha): 95%
pest or weed control at 4000 g/ha (Velvetleaf [2]; 4.0 kg/ha): 100%
pest or weed control at 4000 g/ha (Field Bindweed [3]; 4.0 kg/ha): 100%
plant injury at 4000 g/ha (Rice [4]; 4.0 kg/ha): 95%
pest or weed control at 4000 g/ha (Barnyardgrass [5]; 4.0 kg/ha): 70%
pest or weed control at 4000 g/ha (Morningglory [6]; 4.0 kg/ha): 100%
plant injury at 4000 g/ha (Soybean [7]; 4.0 kg/ha): 80%
plant injury at 4000 g/ha (Wheat [8]; 4.0 kg/ha): 40%
plant injury at 4000 g/ha (Cotton [9]; 4.0 kg/ha): 100%
plant injury at 4000 g/ha (Field Corn [10]; 4.0 kg/ha): 70%
pest or weed control at 4000 g/ha (Velvetleaf [11]; 4.0 kg/ha): 100%
plant injury at 4000 g/ha (Wheat [12]; 4.0 kg/ha): 70%
pest or weed control at 4000 g/ha (Barnyardgrass [13]; 4.0 kg/ha): 90%
pest or weed control at 4000 g/ha (Field Bindweed [14]; 4.0 kg/ha): 95%
pest or weed control at 4000 g/ha (Green Foxtail [15]; 4.0 kg/ha): 100%
plant injury at 4000 g/ha (Rice [16]; 4.0 kg/ha): 80%
pest or weed control at 4000 g/ha (Johnsongrass [17]; 4.0 kg/ha): 90%
pest or weed control at 4000 g/ha (Morningglory [18]; 4.0 kg/ha): 100%
plant injury at 4000 g/ha (Cotton [19]; 4.0 kg/ha): 100%
pest or weed control at 4000 g/ha (Green Foxtail [20]; 4.0 kg/ha): 100%
plant injury at 4000 g/ha (Field Corn [21]; 4.0 kg/ha): 50%
plant injury at 4000 g/ha (Soybean [22]; 4.0 kg/ha): 100%
